Structures are written as SMILES. Active and inactive are the calls of the source. The rule behind the calls is not given here.

For series [1], the system named is HT-1080. As to the kind of experiment: Lethality in human HT-1080 cells assessed as inhibition of cell viability incubated for 24 hrs by MTT assay. It is filed as functional, cell-based. The conditions noted are these: HT-1080, 24 h. (In general: Tetrazolium assays rely on reduction of a dye to a coloured formazan, in cell work by metabolically active cells.)
For series [2], the system named is HT-1080. As to the kind of experiment: Lethality in human HT-1080 cells assessed as cell survival at 10 uM incubated for 24 hrs by MTT assay relative to control. The note with it: read-out: Activity. It is filed as functional.
Series [3] has as its target T1, Phospholipid hydroperoxide glutathione peroxidase GPX4 (Homo sapiens) (UniProt P36969).
T1 sequence (whole entry): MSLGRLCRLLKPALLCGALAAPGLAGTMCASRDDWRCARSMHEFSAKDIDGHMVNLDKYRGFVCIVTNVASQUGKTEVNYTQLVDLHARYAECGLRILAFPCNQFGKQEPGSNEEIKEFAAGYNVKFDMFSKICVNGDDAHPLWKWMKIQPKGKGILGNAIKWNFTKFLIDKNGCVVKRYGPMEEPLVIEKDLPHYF
As to the kind of experiment: Inhibition of GPX4 in human HT-1080 cells at 5 uM incubated for 2 hrs. It is filed as cell-based.

Series [4] can be described thus: Metabolic stability in human liver microsomes assessed as intrinsic clearance measured per mg protein at 1 uM in presence of NADPH by LC-MS analysis. Format: ADME, Microsome. The conditions noted are these: read-out: CLH. (Liver microsomes are vesicles of endoplasmic reticulum, rich in cytochrome P450 enzymes.)
The target in series [5] is T2, Cystine/glutamate transporter (Homo sapiens) (UniProt Q9UPY5).
T2 sequence (whole entry): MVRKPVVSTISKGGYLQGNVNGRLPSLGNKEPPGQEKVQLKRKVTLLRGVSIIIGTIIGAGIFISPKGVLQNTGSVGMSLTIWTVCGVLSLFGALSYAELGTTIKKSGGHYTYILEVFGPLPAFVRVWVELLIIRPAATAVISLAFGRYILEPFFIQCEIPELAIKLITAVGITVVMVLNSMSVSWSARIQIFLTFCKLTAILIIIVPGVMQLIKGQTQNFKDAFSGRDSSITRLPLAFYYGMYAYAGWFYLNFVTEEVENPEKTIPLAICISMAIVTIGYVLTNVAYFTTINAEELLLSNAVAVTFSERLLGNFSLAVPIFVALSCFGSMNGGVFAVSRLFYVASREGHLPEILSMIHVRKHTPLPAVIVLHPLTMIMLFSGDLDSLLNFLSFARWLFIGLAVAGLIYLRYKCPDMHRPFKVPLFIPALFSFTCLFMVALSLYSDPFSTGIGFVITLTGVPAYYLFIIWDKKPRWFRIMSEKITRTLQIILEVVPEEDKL
As to the kind of experiment: Inhibition of Xc- in human HT-1080 cells assessed as decrease in glutamate release at 5 uM incubated for 3 hrs by Amplex red assay. Format: cell-based.

Series [6] in a line: Metabolic stability in human liver microsomes assessed as half life at 1 uM in presence of NADPH by LC-MS analysis. It is filed as ADME, Microsome.
Series [7] is described as follows: Metabolic stability in rat liver microsomes assessed as intrinsic clearance measured per mg protein at 1 uM in presence of NADPH by LC-MS analysis. Format: ADME, Microsome. The conditions noted are these: read-out: CLH.
The nature of series [8]: Metabolic stability in […] rat microsomes assessed as half life at 1 uM in presence of NADPH by LC-MS analysis. It is filed as ADME, Liver, Microsome.

As a reminder, the IC50 is the concentration at which inhibition is half-maximal. In the case of `CN(C)c1ccc(C(=O)N2CCC(Cn3c(C(F)(F)F)nc4ccccc43)CC2)cc1`, in the series on HT-1080 [1], the concentration for half-maximal inhibition (IC50) was 8.17 µM.

As to `CN(C)C(=O)c1cccc(N2CCC(Cn3c(C(F)(F)F)nc4ccccc43)CC2)c1`, in the series with HT-1080 [2], the viability at 10 µM was < 50%.

Take `CCOc1ccccc1-c1nc2ccccc2n1CC1CCN(c2ccc(S(=O)(=O)N(C)C)cc2)CC1`: in the series on HT-1080 [2], the viability at 10 µM was < 50%.

`CC(C)(C)c1ccc(N2CCC(Cn3c(C(F)(F)F)nc4ccccc43)CC2)cc1`: the viability at 10 µM in the series with HT-1080 [2] is < 50%.

Regarding `CC(=O)Nc1ccc(N2CCC(Cn3c(C(F)(F)F)nc4ccccc43)CC2)cc1Cl`, the viability at 10 µM in the series on HT-1080 [2] is < 50%.

With `CN(C)C(=O)c1ccc(N2CCC(Cn3ccc4ccccc43)CC2)cc1Cl`, the viability at 10 µM in the series on HT-1080 [2] was < 50%.

Consider `CN(C)C(=O)c1ccc(N2CCC(Cn3c(C(F)(F)F)nc4ccccc43)CC2)cc1F`, for which the concentration for half-maximal inhibition (IC50) in the series with HT-1080 [1] was 2.11 µM.

As to `FC(F)(F)c1nc2ccccc2n1CC1CCN(c2ccc(C3CCCCC3)cc2)CC1`, the viability at 10 µM in the series with HT-1080 [2] is < 50%.

For the compound `CN(C)C(=O)c1ccc(N2CCC(Cn3c(C(F)(F)F)nc4ccccc43)CC2)cc1Cl`, the IC50 in the series on HT-1080 [1] is 2.53 µM.

For `COC(=O)c1ccc(N2CCC(Cn3c(C(F)(F)F)nc4ccccc43)CC2)cc1S(C)(=O)=O`, the IC50 in the series with HT-1080 [1] stood at 6.64 µM.

`O=C(COc1ccc(Cl)cc1)N1CCC(Cn2c(C(F)(F)F)nc3ccccc32)CC1`: the IC50 in the series on HT-1080 [1] is 3.16 µM.

On to `CC(C)Oc1ccc(N2CCC(Cn3c(C(F)(F)F)nc4ccccc43)CC2)cc1Cl`, for which the viability at 10 µM with HT-1080 [2] is < 50%.

On to `COC(=O)c1ccc([C@H]2c3[nH]c4ccccc4c3C[C@H](C(=O)OC)N2C(=O)CCl)cc1`, for which the inhibition result in series [3] is “Active”.

One may read the half-life as how long it takes for the measured level to halve. Turning to `CCOc1ccccc1-n1c(C(C)N2CCN(C(=O)COc3ccc(Cl)cc3)CC2)nc2ccccc2c1=O` (stereo not given) [ERASTIN], the microsomal CLint at 1 µM in series [4] was found to be 349 µL/min/mg; in series [7], 400 µL/min/mg. Also, in the series with HT-1080 [1], the IC50 worked out at 1.52 µM. The inhibition entry in series [5] is “Active”. In addition, the half-life at 1 µM in series [6] worked out at 4 min; in series [8], 3.5 min.

As to `CCOc1ccccc1Cc1nc2ccccc2n1CC1CCN(c2ccc(S(=O)(=O)N(C)C)cc2)CC1`, in the series on HT-1080 [2], the viability at 10 µM is < 50%.

As for `CN(C)C(=O)c1ccc(N2CCC(Cn3cnc4c(C(F)(F)F)cccc43)CC2)cc1Cl`, the viability at 10 µM in the series with HT-1080 [2] was < 50%.

For `FC(F)(F)c1ccc(N2CCC(Cn3c(C(F)(F)F)nc4ccccc43)CC2)cc1Cl`, the viability at 10 µM in the series on HT-1080 [2] is < 50%.

Turning to `COc1ccc(N2CCC(Cn3c(C(F)(F)F)nc4ccccc43)CC2)cc1Cl`, the viability at 10 µM with HT-1080 [2] is < 50%.

For the compound `CN(C)S(=O)(=O)c1ccc(N2CCC(Cn3c(-c4ccccc4)nc4ccccc43)CC2)cc1`, the viability at 10 µM with HT-1080 [2] was < 50%.

As to `FC(F)(F)c1nc2ccccc2n1CC1CCN(c2ccc(N3CCOCC3)c(Cl)c2)CC1`, the viability at 10 µM in the series with HT-1080 [2] is < 50%.

Take `CN(C)c1ccc(CC(=O)N2CCC(Cn3c(C(F)(F)F)nc4ccccc43)CC2)cc1`: the IC50 in the series on HT-1080 [1] came to 3.48 µM.

On to `CC(C)c1ccc(N2CCC(Cn3c(C(F)(F)F)nc4ccccc43)CC2)cc1`, for which the viability at 10 µM with HT-1080 [2] is < 50%.

In the case of `COC(=O)c1ccc(N2CCC(Cn3c(C(F)(F)F)nc4ccccc43)CC2)cc1Cl`, the viability at 10 µM with HT-1080 [2] was < 50%.

Regarding `CCN(CC)C(=O)c1ccc(N2CCC(Cn3c(C(F)(F)F)nc4ccccc43)CC2)cn1`, the IC50 in the series on HT-1080 [1] came out at 3.46 µM.

`CCN(CC)C(=O)c1ccc(N2CCC(Cn3c(C(F)(F)F)nc4ccccc43)CC2)cc1`: the IC50 in the series on HT-1080 [1] was found to be 2.21 µM.

Regarding `CN(C)C(=O)c1ccc(N2CCC(Cn3c(C(F)(F)F)nc4ccccc43)CC2)cc1`, in the series on HT-1080 [1], the IC50 was 3.06 µM.

Turning to `O=S(=O)(c1ccc(N2CCC(Cn3c(C(F)(F)F)nc4ccccc43)CC2)cc1)N1CCOCC1`, the microsomal CLint at 1 µM in series [4] was determined as 118 µL/min/mg; in series [7], 187 µL/min/mg. Further, the IC50 in the series with HT-1080 [1] worked out at 1.89 µM. Moreover, the half-life at 1 µM stood at 11.7 min in series [6] and 7.4 min in series [8].

On to `CN(C)C(=O)c1ccc(N2CCC(Cn3cnc4ccccc43)CC2)cc1Cl`, for which the viability at 10 µM in the series with HT-1080 [2] is < 50%.

Regarding `CN1C(=O)c2ccc(N3CCC(Cn4c(C(F)(F)F)nc5ccccc54)CC3)cc2C1=O`, the viability at 10 µM in the series with HT-1080 [2] is < 50%.

On to `CCOc1cccc(-c2nc3ccccc3n2CC2CCN(c3ccc(S(=O)(=O)N(C)C)cc3)CC2)c1`, for which the viability at 10 µM in the series on HT-1080 [2] was < 50%.

As for `CS(=O)(=O)c1cc(N2CCC(Cn3c(C(F)(F)F)nc4ccccc43)CC2)ccc1CO`, the 50% inhibitory concentration (IC50) in the series on HT-1080 [1] came to 7.47 µM.

Consider `O=C(c1ccc(N2CCC(Cn3c(C(F)(F)F)nc4ccccc43)CC2)cc1)N1CCCC1`, for which the microsomal CLint at 1 µM in series [4] was 105 µL/min/mg; in series [7], 164 µL/min/mg. The IC50 with HT-1080 [1] worked out at 1.49 µM. Further, the half-life at 1 µM is 13.2 min in series [6] and 8.6 min in series [8].

(Values after ChEMBL document CHEMBL5385865, “Discovery and optimization of 2-(trifluoromethyl)benzimidazole derivatives as novel ferroptosis inducers in vitro and in vivo” (Eur J Med Chem, 2023).)
